Measured values: PMC11742723, “The clinical-stage drug BTZ-043 accumulates in murine tuberculosis lesions and efficiently acts against Mycobacterium tuberculosis” (Nature Communications, 2025)
Where “and” joins values, the source holds several entries; their conditions need not be identical. Equal entries are not always repeated.

Tests used:
[1] = test system: Mtb H37Rv; experiment: BTZ-043 dose escalation study in Mtb-infected BALB/c mice (pulmonary CFU); assay type: in vivo, Mycobacterium tuberculosis; settings: for pulmonary CFU counts / mouse: individual female mice
[2] = test system: Mtb H37Rv; experiment: Prolonged BTZ-043 treatment of Mtb-infected IL-13tg mice (pulmonary CFU); assay type: in vivo, Mycobacterium tuberculosis
[3] = test system: Mtb H37Rv; experiment: Ziehl-Neelsen staining and histology of centrally necrotizing granulomas in IL-13tg mice; assay type: in vivo, Mycobacterium tuberculosis; settings: 250 mg/kg/day 10 days, versus untreated
Experimental: Cryosections were fixed with 4% paraformaldehyde/PBS (24 h or 1 h for non-irradiated or irradiated sections, respectively) prior to staining with haematoxylin and eosin (HE), ZN or Heidenhain’s azan trichrome. For immunohistochemical analysis ZN stained cryosections were probed with rabbit polyclonal CD68 antibody (1:200, ab125212, Abcam, Cambridge, UK) which was detected with biotinylated goat anti-rabbit antibody (1:100, 111-065-144, Jackson Immunoresearch, Suffolk, UK)[13]. To visualize lipid droplets, irradiated cryosections were fixed (10% ice-cold formalin/PBS), washed with 60% 2-propanol, and incubated in Oil Red O solution (O0625, Sigma-Aldrich, Taufkirchen, Germany). After washing (60% 2-propanol and water), Gill’s haematoxylin was used for counterstaining. Images were acquired on a BX41 light microscope (Olympus, Hamburg, Germany) using cellSens imaging software (Olympus, Hamburg, Germany) or NIS-Elements software (Nikon, Badhoevedorp, The Netherlands). Post MALDI imaging HE staining was performed with the following protocol[40]: the matrix layer was washed off with MeOH. Rehydrated (2 min in 100%, 70%, 40% EtOH then 100% H2O) samples were submerged in Mayers haematoxylin solution for 12 min followed by 10 min submersion in Na2CO3 (1%) and rinsed with distilled water. Counterstaining was performed by 2-min submersion in 0.5% acidified eosin Y.

[4] = Impact of γ-irradiation on BTZ-043 in spiked liver mimetic tissue cryosections; set-up: species or system mouse; settings: for ng/mg lung tissue, technical replicate 1 / ng/mg lung tissue, technical replicate 2 / Extract concentration, technical replicate 1 / Extract concentration, technical replicate 2 / ng/mg lung tissue, Mean: BTZ-043 spiked liver homogenate section (9.7 µg/g); for Extract concentration, technical replicate 1 / Extract concentration, technical replicate 2: LC-MS/MS; for ng/mg lung tissue, Mean: mean of technical replicates
[5] = BALB/c, mouse, in vivo
[6] = BALB/c, 8 weeks, 3 highest doses (250-1000 mg/kg/day)

In the case of `C[C@H]1COC2(CCN(c3nc(=O)c4cc(C(F)(F)F)cc([N+](=O)[O-])c4s3)CC2)O1` [BTZ-043], the “pulmonary CFU counts / mouse” value ([1]; 50 mg/kg BTZ-043, 4 weeks of treatment) is reported as 555882 CFU counts / mouse and 499154 CFU counts / mouse and 2156250 CFU counts / mouse and 558800 CFU counts / mouse and 525176 CFU counts / mouse and 501563 CFU counts / mouse, the “pulmonary CFU counts / mouse” value ([1]; 50 mg/kg BTZ-043, 6 weeks of treatment) is reported as 151667 CFU counts / mouse and 250364 CFU counts / mouse and 426300 CFU counts / mouse and 300706 CFU counts / mouse and 257455 CFU counts / mouse and 439714 CFU counts / mouse and the “pulmonary CFU counts / mouse” value ([1]; 50 mg/kg BTZ-043, 8 weeks of treatment) is reported as 287143 CFU counts / mouse and 182471 CFU counts / mouse and 166050 CFU counts / mouse and 110400 CFU counts / mouse and 84000 CFU counts / mouse. The “pulmonary CFU counts / mouse” value ([1]; 100 mg/kg BTZ-043, 4 weeks of treatment) was 416625 CFU counts / mouse and 429231 CFU counts / mouse and 396000 CFU counts / mouse and 458571 CFU counts / mouse and 415800 CFU counts / mouse and 472500 CFU counts / mouse, the “pulmonary CFU counts / mouse” value ([1]; 100 mg/kg BTZ-043, 6 weeks of treatment) was 34200 CFU counts / mouse and 61091 CFU counts / mouse and 157500 CFU counts / mouse and 207692 CFU counts / mouse and 197308 CFU counts / mouse and 173438 CFU counts / mouse and the “pulmonary CFU counts / mouse” value ([1]; 100 mg/kg BTZ-043, 8 weeks of treatment) was 156000 CFU counts / mouse and 66000 CFU counts / mouse and 39129 CFU counts / mouse and 101769 CFU counts / mouse and 139765 CFU counts / mouse and 67765 CFU counts / mouse. The “pulmonary CFU counts / mouse” value ([1]; 250 mg/kg BTZ-043, 4 weeks of treatment) was 634800 CFU counts / mouse and 254308 CFU counts / mouse and 513000 CFU counts / mouse and 409500 CFU counts / mouse and 484500 CFU counts / mouse and 249923 CFU counts / mouse, the “pulmonary CFU counts / mouse” value ([1]; 250 mg/kg BTZ-043, 6 weeks of treatment) was 49400 CFU counts / mouse and 35888 CFU counts / mouse and 49309 CFU counts / mouse and 39877 CFU counts / mouse and 52521 CFU counts / mouse and 45750 CFU counts / mouse and the “pulmonary CFU counts / mouse” value ([1]; 250 mg/kg BTZ-043, 8 weeks of treatment) was 25080 CFU counts / mouse and 15273 CFU counts / mouse and 21930 CFU counts / mouse and 15218 CFU counts / mouse and 42694 CFU counts / mouse and 15750 CFU counts / mouse. For the same molecule, the “pulmonary CFU counts / mouse” value ([1]; 500 mg/kg BTZ-043, 4 weeks of treatment) was 154286 CFU counts / mouse and 324000 CFU counts / mouse and 360000 CFU counts / mouse and 251750 CFU counts / mouse and 312857 CFU counts / mouse and 230769 CFU counts / mouse, the “pulmonary CFU counts / mouse” value ([1]; 500 mg/kg BTZ-043, 6 weeks of treatment) was 54000 CFU counts / mouse and 150231 CFU counts / mouse and 60750 CFU counts / mouse and 101769 CFU counts / mouse and 56100 CFU counts / mouse and 15346 CFU counts / mouse and the “pulmonary CFU counts / mouse” value ([1]; 500 mg/kg BTZ-043, 8 weeks of treatment) was 13200 CFU counts / mouse and 24750 CFU counts / mouse and 35550 CFU counts / mouse and 13714 CFU counts / mouse and 20250 CFU counts / mouse and 14657 CFU counts / mouse. The “pulmonary CFU counts / mouse” value ([1]; 1000 mg/kg BTZ-043, 4 weeks of treatment) was 228000 CFU counts / mouse and 325600 CFU counts / mouse and 166909 CFU counts / mouse and 226154 CFU counts / mouse and 205800 CFU counts / mouse and 140000 CFU counts / mouse, the “pulmonary CFU counts / mouse” value ([1]; 1000 mg/kg BTZ-043, 6 weeks of treatment) was 42075 CFU counts / mouse and 43131 CFU counts / mouse and 54450 CFU counts / mouse and 36450 CFU counts / mouse and 58900 CFU counts / mouse and 98571 CFU counts / mouse and the “pulmonary CFU counts / mouse” value ([1]; 1000 mg/kg BTZ-043, 8 weeks of treatment) was 9208 CFU counts / mouse and 16615 CFU counts / mouse and 22100 CFU counts / mouse and 11500 CFU counts / mouse and 17738 CFU counts / mouse and 28600 CFU counts / mouse. The “reduction of bacterial burden in comparison to the vehicle control group” value ([1]; BALB/c lungs, 4 weeks of therapy, all doses 50-1000 mg/kg/day microcrystalline BTZ-043, oral 5 days/week) was > 0.7 log10 CFU, the “antimycobacterial activity compared to INH (25 mg/kg/day)” value ([1]; BALB/c, 6 weeks, 50 mg/kg/day) was “reduced” and the “antimycobacterial activity compared to INH (25 mg/kg/day)” value ([1]; BALB/c, 6 weeks, 100 mg/kg/day) was “comparable”. The “antimycobacterial activity compared to INH (25 mg/kg/day)” value ([1]; BALB/c, 6 weeks, 250, 500 and 1000 mg/kg/day) was “significantly greater antimycobacterial activity than the first-line drug INH”, the “efficacy compared to INH therapy” value [1, 6] was “significantly increased efficacy” and the “pulmonary bacterial burden lower than the vehicle control group” value [1, 6] was “more than 2.4 log10 CFU”. The “lowest dose with maximum effect (LME)” value ([1]; mouse model of TB (BALB/c), microcrystalline BTZ-043) was 250 mg/kg/day, the “pulmonary CFU / mouse” value ([2]; BTZ-043 [250 mg/kg], 4-6 weeks of therapy, individual mice, female and male, 250 mg/kg) was 823500 CFU / mouse and 616966 CFU / mouse and 3482791 CFU / mouse and 4043721 CFU / mouse and 7632000 CFU / mouse and the “reduction of the pulmonary bacterial burden compared to the vehicle group” value ([2]; IL-13tg mice, 250 mg/kg 5 times a week, prolonged therapy (4 to 6 weeks)) was “more than 2 log10 CFU”. For the same molecule, the “acid fast bacilli (AFB) within centrally necrotizing granulomas (ZN staining)” value [3] was “most notable reduction in AFB within the layer of foamy macrophages”, the “ng/mg lung tissue, technical replicate 1” value ([4]; irradiation) was 5.99 ng/mg and 26 ng/mg and 6.57 ng/mg and 6.4 ng/mg and 5.5 ng/mg and 5.14 ng/mg and 5.58 ng/mg and the “ng/mg lung tissue, technical replicate 2” value ([4]; irradiation) was 6.75 ng/mg and 23.9 ng/mg and 6.81 ng/mg and 5.4 ng/mg and 6.51 ng/mg and 6.42 ng/mg. The “Extract concentration, technical replicate 1” value ([4]; irradiation) was 0.0193 µg/mL and 0.079 µg/mL and 0.0196 µg/mL and 0.0194 µg/mL and 0.0175 µg/mL and 0.0152 µg/mL and 0.0178 µg/mL, the “Extract concentration, technical replicate 2” value ([4]; irradiation) was 0.0218 µg/mL and 0.0727 µg/mL and 0.0207 µg/mL and 0.0172 µg/mL and 0.0193 µg/mL and 0.0205 µg/mL and the “ng/mg lung tissue, Mean” value ([4]; irradiation) was 6.37 ng/mg and 6.57 ng/mg and 6.6 ng/mg and 5.45 ng/mg and 5.82 ng/mg and 6 ng/mg. The “ng/mg lung tissue, technical replicate 1” value ([4]; no irradiation) was 6.1 ng/mg and 5.48 ng/mg and 7.3 ng/mg and 4.22 ng/mg and 6.84 ng/mg and 6.88 ng/mg and 6.26 ng/mg, the “ng/mg lung tissue, technical replicate 2” value ([4]; no irradiation) was 6.14 ng/mg and 6.24 ng/mg and 7.55 ng/mg and 4.89 ng/mg and 8.49 ng/mg and 7.42 ng/mg and 7.29 ng/mg and the “Extract concentration, technical replicate 1” value ([4]; no irradiation) was 0.0195 µg/mL and 0.0179 µg/mL and 0.0233 µg/mL and 0.0135 µg/mL and 0.0216 µg/mL and 0.0204 µg/mL and 0.0187 µg/mL. The “Extract concentration, technical replicate 2” value ([4]; no irradiation) was 0.0197 µg/mL and 0.0204 µg/mL and 0.0241 µg/mL and 0.0156 µg/mL and 0.0268 µg/mL and 0.0221 µg/mL and 0.0218 µg/mL, the “ng/mg lung tissue, Mean” value ([4]; no irradiation) was 6.12 ng/mg and 5.86 ng/mg and 7.42 ng/mg and 4.56 ng/mg and 7.66 ng/mg and 7.15 ng/mg and 6.78 ng/mg and the “Conc. (Targetlynx export, sample extract)” value ([4]; BTZ-043 spiked liver homogenate section, no irradiation, injections 1 and a, internal standard reserpine) was 1.87E-02. The “impact of γ-irradiation on the concentration and distribution of BTZ-043” value ([4]; liver mimetic cryosections, 5.85 kGy) was “does not impact”, the “BTZ-043 concentration in liver mimetic cryosection, outlier removed” value ([4]; spiked liver mimetic tissue, rout method outlier) was 24.95 ng/mg and the “AUC at which BTZ-043total exposure reaches saturation” value [5] was ~30,000 h·ng/mL.
